Results on 12 molecules are retold here after patent US5250542A, “Peripherally selective piperidine carboxylate opioid antagonists” (Eli Lilly and Company, priority 1992, dated 1993).

Structures can show the parent of a compound that is named as a salt. Where two headings read alike, the source gives them in different places.

In one test the target is T1, opioid receptor (Mus musculus, UniProt P42866).
T1 construct: Five CF-1 male mice (Charles River, Portage, Mich.); from tissue; host or cells: living CF-1 male mice (in vivo test; endogenous receptor)
The test can be described thus: mouse writhing analgesis test: block of morphine-induced analgesia. Type of test: in vivo, CF-1 male mice. Set-up: unit not given here. Conditions: dose of antagonist that reduced the inhibition of writhing produced by 1.25 mg/kg morphine sulfate to 50%; subcutaneous, 20 min before acetic acid. Here is the method:
In order to determine in vivo opioid receptor antagonism, the mouse writhing analgesis test was used. Test compounds were measured for their ability to block morphine-induced analgesia.
Five CF-1 male mice (Charles River, Portage, Mich.), weighing approximately 20 g after being fasted overnight, were observed simultaneously for the writhing response. The writhing response was defined as a contraction of the abdominal musculature, followed by the extension of the hind limbs, and was induced by the intraperitoneal adminstration of 0.6% acetic acid in a volumne of 1 ml/100 g body weight. The observation period was 10 min. in duration, beginning 5 min. after injection of acetic acid. The percent inhibition of writhing was calculated from the average number of writhes in the control (non-drug) group. Each data point is the mean (±standarderror) for five mice. The ED50 was defined as the dose of agonist that inhibited mean writhing by 50%. […] Each mouse was only used once. All drugs were administered subcutaneously (1 ml/100 g bwt) 20 min. before the injection of acetic acid.

Test [1] deals with T2, peripheral opioid receptors (Mus musculus, UniProt P42866).
T2 construct: Mice maintained (6 mice/cage) on 0.01M saccharin water with 1 g/1 morphine sulfate; from tissue; host or cells: living morphine-maintained mice (in vivo test; endogenous receptor)
The test can be described thus: precipitated diarrhea in morphine-maintained mice (peripheral opioid activity) and comparison with the writhing test. Particulars: for Ratio (AD50 mouse writhing test / ED50 mouse diarrhea test): higher ratio = greater relative antagonism of peripheral opioid receptors; for ED50: mouse, 0.5 h, morphine-maintained mice, antagonist subcutaneous or oral, 30 min observation. It is filed as in vivo. Here is the method: Determinations of peripheral opioid activity were conducted. Mice maintained (6 mice/cage) on 0.01M saccharin water with 1 g/1 morphine sulfate for a minimum of 10 days with mice averaging 3.0^+ g water/mouse/day for at least three days are used as subjects. The morphine water was removed 45 min. prior to injection with the proposed opioid antagonist. Initial testing consisted of 5 mice/dose of compound. The antagonist was given by the subcutaneous or oral, route of administration,and the mice were placed in 11-14"×4 7/12 I.D. clear plastic cylinders with white paper towels used for a floor.
The mice were then monitored visually for 30 minutes post-injection for the presence of jumping and of diarrhea. Jumping was scored as positive if at least one jump occurred in 30 min. Diarrhea was scored as positive when feces were moist enough to stain the white paper at the base of the cylinder. After 30 minutes of testing, the mice were placed back in original cages, put back on morphine water, and not tested again for 48 hrs. Lower doses of the antagonist compounds were tested until threshold doses for diarrhea were determined. Diarrhea is a peripherally mediated sign of precipitated opiate abstinence.
The extent of the effect on peripheral activity compared to central activity of the present compounds can-be determined by comparing the AD50 for the mouse writhing test with the ED50 for the mouse diarrhea test. The higher the ratio, the greater the relative antagonism of the peripheral opioid receptors by a particular compound.
(In general: An intraperitoneal irritant provokes the stretching counted in writhing tests.)

The target of the next test is T3, mu receptor (Rattus norvegicus, UniProt P33535).
T3 construct: rat whole brain minus cerebellum for mu was homogenized; from tissue; host or cells: brain of male Sprague Dawley rats, whole brain minus cerebellum, homogenate fraction
The test can be described thus: opioid receptor binding assay, [3H] NAL (tritiated naloxone), mu receptor. Set-up: species or system rat (Male Sprague Dawley), brain minus cerebellum. Here is the method: This assay was conducted by the following procedure.
Male Sprague Dawley rats for mu site experiments were sacrificed via decapitation and the brains were removed. The brain tissue, rat whole brain minus cerebellum for mu was homogenized in a Teflon and glass tissue homogenizer. A supernatant I, pellet IV, fraction was frozen in a nitrogen freezer at 1.33 g/ml concentration and stored for not longer than five weeks prior to use. Pellets were rehydrated with physiological buffer prior to use.
The reaction was initiated by the addition of the resuspended tissue which had been preincubated at 37° C. for 20 minutes. The reaction mixture was incubated in a 37° C. water bath for 20 minutes. The reaction was terminated by rapid filtration, (Brandel Cell Harvestor), through Whatman GF/B glass filters that had been presoaked in Krebs-Hepes buffer pH 7.4. The filters were then washed 2x with 5 ml of ice cold Krebs-Hepes buffer pH 7.4. Washed filters were placed in scintillation vials and 10 ml RedySolv, (Brandel), was added and samples counted in a Searle D-300 beta counter. Means and standard error statistics were calculated for triplicate experimental determinations in certain cases. The incubation time for the reaction mixture was 20 minutes at 37° C.
Ki values were calculated using a minitab statistical program according to the following formula: [formula] wherein IC50 is the concentration at which 50% of the ^3 H ligand is displaced by the test compounds and KD is the dissociation constant for the ^3 H ligand at the receptor site. KD can be determined as described by Bennett, "Methods in Binding Studies", Neurotransmitter Receptor Binding, Yamamura, et al., ed., p. 57-90, Raven Press, N.Y. (1978) incorporated herein by reference.
In the Table, column 1 sets forth the Example Number of the compound evaluated, column 2 the Ki value in nanomolar (nM) at the mu receptor and columns 3 and 4 the percent displacement by the test compound at the indicated concentration, i.e., 10 nm or 100 nm.

Where [2] appears, read: 20 min, read-out: % displacement at 10 nM, 10 nM test compound, [3H] naloxone 0.5 nM.
Where [3] appears, read: 20 min, read-out: % displacement at 100 nM.
[4] abbreviates: 20 min, read-out: % displacement at 100 nM, 100 nM test compound, [3H] naloxone 0.5 nM.
Where [5] appears, read: 20 min, 10 nM test compound, [3H] naloxone 0.5 nM, read-out: % displacement at 10 nM.
[6] abbreviates: 20 min, 100 nM test compound, [3H] naloxone 0.5 nM, read-out: % displacement at 100 nM.
The mark [7] stands for this setting: 20 min, read-out: % displacement at 10 nM.

T2 sequence (P42866 whole entry): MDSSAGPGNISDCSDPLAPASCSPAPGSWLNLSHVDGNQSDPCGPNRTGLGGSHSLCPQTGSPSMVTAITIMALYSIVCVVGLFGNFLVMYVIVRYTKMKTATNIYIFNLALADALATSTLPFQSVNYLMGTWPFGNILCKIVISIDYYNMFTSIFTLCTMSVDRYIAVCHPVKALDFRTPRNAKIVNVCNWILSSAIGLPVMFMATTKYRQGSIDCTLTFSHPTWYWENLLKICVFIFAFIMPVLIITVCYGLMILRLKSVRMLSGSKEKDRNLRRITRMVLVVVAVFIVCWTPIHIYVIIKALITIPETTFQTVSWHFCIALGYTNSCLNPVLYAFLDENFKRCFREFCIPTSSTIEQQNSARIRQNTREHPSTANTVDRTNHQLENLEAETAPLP
T1 sequence (P42866 whole entry): as above
T3 sequence (P33535 whole entry): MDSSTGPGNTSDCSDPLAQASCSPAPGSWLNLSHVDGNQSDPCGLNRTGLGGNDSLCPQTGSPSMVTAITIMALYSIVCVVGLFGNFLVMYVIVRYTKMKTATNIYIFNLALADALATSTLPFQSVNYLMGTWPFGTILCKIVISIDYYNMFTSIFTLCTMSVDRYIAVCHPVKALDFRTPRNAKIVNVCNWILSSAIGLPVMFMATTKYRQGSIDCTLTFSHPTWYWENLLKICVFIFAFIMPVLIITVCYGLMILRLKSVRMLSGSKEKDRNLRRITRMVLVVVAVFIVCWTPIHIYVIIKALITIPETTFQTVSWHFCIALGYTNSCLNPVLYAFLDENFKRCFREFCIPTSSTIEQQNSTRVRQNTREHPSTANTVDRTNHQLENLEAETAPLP

As a reminder, the ED50 is the midpoint of the dose-response relation. The Ki is a measure of affinity in units of concentration, obtained from inhibition or displacement. `CNC(=O)CCCNC(=O)C(Cc1ccccc1)CN1CC[C@@](C)(c2cccc(O)c2)[C@@H](C)C1` (some centres unmarked) [Example 62, N-(methyl)-4-[[3-]4-(3-hydroxyphenyl)-3,4-dimethyl-1-piperidinyl]-2-(phenylmethyl)-1-oxopropyl]amino]butanamide monohydrochloride monohydrate] yielded an AD50 at opioid receptor of 18.3. In addition, in test [1], the “Ratio (AD50 mouse writhing test / ED50 mouse diarrhea test)” value is reported as 122 and the ED50 worked out at 0.15 mg/kg. The molecule also yielded a Ki at mu receptor of 1.18 nM. The inhibition at 0.01 µM on mu receptor (setting [2]) was determined as 89%. Further, on mu receptor (setting [3]), the inhibition at 0.1 µM is 98%.
With `CC(C)CNC(=O)CNC(=O)C(Cc1ccccc1)CN1CC[C@@](C)(c2cccc(O)c2)[C@@H](C)C1` (some centres unmarked) [Example 50, N-2-[(2-methylpropyl)amino]-2-oxo-ethyl]-3-[3,4-dimethyl-4-(3-hydroxyphenyl)-1-piperidinyl-2-phenylmethyl propanamide monohydrate hydrochloride], the AD50 at opioid receptor is recorded as 14.3. Also, in test [1], the “Ratio (AD50 mouse writhing test / ED50 mouse diarrhea test)” value was 26 and the ED50 was 0.54 mg/kg. Further, the Ki on mu receptor was found to be 1.2 nM. Also, at mu receptor (setting [2]), the inhibition at 0.01 µM came to 94%. In addition, at mu receptor (setting [4]), the inhibition at 0.1 µM stood at 100%.
In turn, `CC(C)COC(=O)CNC(=O)C(Cc1ccccc1)CN1CC[C@@](C)(c2cccc(O)c2)[C@@H](C)C1` (some centres unmarked) [Example 54, 2-[2-(phenylmethyl)-1-oxo-3-4-(3-hydroxyphenyl)-3,4-dimethyl-1-piperidinyl]propyl]amino]-ethanoic acid 2-methylpropyl ester monohydrochloride] came in with an AD50 on opioid receptor of 23. In test [1], the “Ratio (AD50 mouse writhing test / ED50 mouse diarrhea test)” value is 1150 and the ED50 was found to be 0.02 mg/kg. Also, the inhibition at 0.01 µM at mu receptor (setting [2]) stood at 78%. Moreover, the inhibition at 0.1 µM on mu receptor (setting [3]) amounted to 98%. The molecule also yielded a Ki at mu receptor ([3H] naloxone 0.5 nM, pH 7.4, 37° C., 20 min) of 2.27 nM.
The molecule `CNC(=O)CCNC(=O)C(Cc1ccccc1)CN1CC[C@@](C)(c2cccc(O)c2)[C@@H](C)C1` (some centres unmarked) [Example 59, N-(methyl)-3-[[3-[4-(3-hydroxyphenyl)-3,4-dimethyl-1-piperidinyl]-2-(phenylmethyl)-1-oxopropyl]amino]propanamide monohydrochloride] had an AD50 at opioid receptor of 5.9. Further, in test [1], the “Ratio (AD50 mouse writhing test / ED50 mouse diarrhea test)” value is 11 and the ED50 is 0.54 mg/kg. The molecule also came in with a Ki at mu receptor of 4.64 nM. Moreover, the inhibition at 0.01 µM on mu receptor (setting [2]) was 88%. For the same molecule, the inhibition at 0.1 µM on mu receptor (setting [4]) worked out at 100%.
On opioid receptor, `CCOC(=O)CN(C)C(=O)C(Cc1ccccc1)CN1CC[C@@](C)(c2cccc(O)c2)[C@@H](C)C1` (some centres unmarked) [Example 65, [[2-[[4-(3-hydroxyphenyl)-3,4-dimethyl-1-piperidinyl]methyl]-1-oxo-3-phenylpropyl]-methylamino]acetic acid ethyl ester monohydrochloride] showed an AD50 of 2.8. In test [1], the “Ratio (AD50 mouse writhing test / ED50 mouse diarrhea test)” value is given as 3 and the ED50 is 0.92 mg/kg. Also, the inhibition at 0.01 µM at mu receptor (setting [5]) stood at 57%. The inhibition at 0.1 µM on mu receptor (setting [6]) stood at 95%.
`C[C@H]1CN(CC(Cc2ccccc2)C(=O)NCCC(=O)O)CC[C@@]1(C)c1cccc(O)c1` (some centres unmarked) [Example 57, monohydrate] showed an AD50 on opioid receptor greater than 40. Moreover, in test [1], the “Ratio (AD50 mouse writhing test / ED50 mouse diarrhea test)” value was greater than 400 and the ED50 worked out at 0.1 mg/kg. The molecule also came in with a Ki on mu receptor of 0.5 nM. In addition, the inhibition at 0.01 µM on mu receptor (setting [7]) worked out at 92%. The inhibition at 0.1 µM at mu receptor (setting [3]) turned out to be 98%.
Take `C[C@H]1CN(CC(Cc2ccccc2)C(=O)NCC(=O)N(C)C)CC[C@@]1(C)c1cccc(O)c1` (some centres unmarked) [Example 47, N,N-dimethyl-2-[[3-4-(3-hydroxyphenyl)-3,4-dimethyl-1-piperidinyl]-2-(phenylmethyl)-1-oxypropyl]amino]acetamide monohydrochloride monohydrate]: at opioid receptor, the AD50 was 40. For the same molecule, in test [1], the “Ratio (AD50 mouse writhing test / ED50 mouse diarrhea test)” value was 267 and the ED50 stood at 0.15 mg/kg. For the same molecule, the affinity at mu receptor corresponds to a Ki of 2.11 nM. The inhibition at 0.01 µM on mu receptor (setting [2]) was determined as 89%. Further, the inhibition at 0.1 µM at mu receptor (setting [4]) came out at 95%.
For `CCNC(=O)CCNC(=O)C(CC1CCCCC1)CN1CC[C@@](C)(c2cccc(O)c2)[C@@H](C)C1` (some centres unmarked) [Example 37, monohydrochloride], at opioid receptor, the AD50 is recorded as 3.9. Moreover, in test [1], the “Ratio (AD50 mouse writhing test / ED50 mouse diarrhea test)” value came out at 43 and the 50% effective dose (ED50) amounted to 0.09 mg/kg. This molecule also came in with a Ki at mu receptor of 1.09 nM. Besides, the inhibition at 0.01 µM on mu receptor (setting [2]) was 93%. For the same molecule, the inhibition at 0.1 µM on mu receptor (setting [3]) was found to be 97%.
With `CCCCCOC(=O)CNC(=O)C(Cc1ccccc1)CN1CC[C@@](C)(c2cccc(O)c2)[C@@H](C)C1` (relative stereo) [Example 86], the AD50 on opioid receptor is reported as greater than 40. In test [1], the “Ratio (AD50 mouse writhing test / ED50 mouse diarrhea test)” value was greater than 2353 and the ED50 was determined as 0.017 mg/kg. Moreover, the inhibition at 0.01 µM on mu receptor (setting [5]) was 74%. Further, the inhibition at 0.1 µM at mu receptor (setting [6]) was determined as 91%.
Molecule `CCOC(=O)CNC(=O)C(CC1CCCCC1)CN1CC[C@@](C)(c2cccc(O)c2)[C@@H](C)C1` (relative stereo) [Example 29, 2-[[3-[4-(3-hydroxyphenyl-3,4-dimethyl-1-piperidinyl]-2-cyclohexylmethyl-1-oxopropyl]amino]acetic acid ethyl estermonohydrochloride] registered an AD50 at opioid receptor of 3.9. Also, in test [1], the “Ratio (AD50 mouse writhing test / ED50 mouse diarrhea test)” value was 23 and the ED50 worked out at 0.17 mg/kg. For the same molecule, affinity on mu receptor was put at a Ki of 2.94 nM. Moreover, the inhibition at 0.01 µM at mu receptor (setting [2]) worked out at 98%. Moreover, the inhibition at 0.1 µM on mu receptor (setting [4]) turned out to be 100%.
In turn, `C[C@H]1CN(CC(Cc2ccccc2)C(=O)NCC(=O)OCc2ccccc2)CC[C@@]1(C)c1cccc(O)c1` (some centres unmarked) [Example 55, 2-[[2-(phenylmethyl)-1-oxo-3-[4-(3-hydroxyphenyl)3,4-dimethyl-1-piperidinyl]propyl]amino]-ethanoic acid phenylmethyl ester hydrochloride] gave an AD50 at opioid receptor of 7.5. In test [1], the “Ratio (AD50 mouse writhing test / ED50 mouse diarrhea test)” value is 63 and the ED50 was 0.12 mg/kg. Moreover, the inhibition at 0.01 µM on mu receptor (setting [7]) came to 83%. For the same molecule, the inhibition at 0.1 µM at mu receptor (setting [3]) worked out at 97%.
`COC1CCC(OC(=O)CNC(=O)C(Cc2ccccc2)CN2CC[C@@](C)(c3cccc(O)c3)[C@@H](C)C2)CC1` (relative stereo) [Example 92] showed an AD50 on opioid receptor of 7.7. In addition, in test [1], the “Ratio (AD50 mouse writhing test / ED50 mouse diarrhea test)” value turned out to be 1540 and it took a dose of 0.005 mg/kg to reach the 50% effect level (ED50). The inhibition at 0.01 µM on mu receptor (setting [5]) was 85%. Besides, at mu receptor (setting [3]), the inhibition at 0.1 µM is 97%.
